{
  "source": "patent US20140045807A2",
  "about": "“THE USE OF 3-METHOXY-PREGNENOLONE FOR THE PREPARATION OF A DRUG FOR TREATING A TRAUMATIC BRAIN INJURY” (priority 2004, published 2014)",
  "key": {"[1]": {"tested_on": "microtubule-associated MAP2 in PC12 cells", "assay": "Immunolabeling of microtubule-associated MAP2 in PC12 cells", "type": "cell-based, rat", "settings": "20 μM, NGF 10 ng/ml (FIG. 4)", "text": "They were fixed and exposed to anti-MAP2 antibodies that reveal microtubule-associated MAP2 exclusively.\nTo test the effect of selected molecules on neuritic growth, we first used the PC12 line, which has long been employed in neurobiological research. In the presence of NGF (nerve growth factor), the cells of this line, which arise from a rat pheochromocytoma, form neuritic extensions containing MAP-associated microtubules. The growth of these elongations is stimulated by the addition of PREG. […] This neurite growth accompanies the stimulation by 43-B of the association of MAP2 to the microtubules (FIG. 4)."}, "[2]": {"tested_on": "PC12 cells", "assay": "Retraction of neurites induced by nocodazole", "type": "cell-based, rat", "settings": "pretreated one hour at 30 μM, nocodazole 15 minutes", "text": "FIG. 5: Retraction of neurites (neurites) induced by nocodazole.\nNocodazole is a microtubule depolymerizing agent. Its addition to PC12 cell cultures, differentiated in the presence of NGF, causes neurites to retract as a result of the depolymerization of their microtubules."}, "[3]": {"tested_on": "spinal cord compression in rats", "assay": "Spinal cord compression model, locomotor recovery (BBB score)", "type": "in vivo, rat", "settings": "12 mg/kg/day subcutaneous for 2 weeks; as of post-operation day 7", "protocol": "FIG. 7: Effect of molecule 43B on locomotor recovery following spinal cord compression in rats. Animal locomotion was evaluated in a blind format during the 1-28 day post-operative period using the BBB score which evaluates the degree of paralysis (higher values correspond to better recovery). Statistical significance: * indicates p<0.001; ** indicates p<0.0001.\nTo determine the neuroprotective effects of the molecules tested, a spinal cord compression model is used. This model involves the total paralysis of the animals in the first few days following the operation. This period of paralysis is followed of a phase of approximately three weeks during which the animals partially recover their motor function. The study of this recovery using a simple and precise functional test based on observation of the animals (the BBB score) makes it possible to study the speed and the degree of recovery of the animals, with and without treatment.\nTwo groups of rats were subjected to spinal cord compression. Then, daily for 2 weeks, the animals received a subcutaneous injection containing either sesame oil alone (control group, n=20), or sesame oil containing molecule 43B (43B group, n=20; 12 mg/kg/day). The first injection was given minutes after spinal cord compression. Locomotion of the animals, using BBB scores, was evaluated in a blind format on post-operation days 1, 4, 7, 14, 21, and 28. […]"}, "[4]": {"tested_on": "transgenic mice expressing the longest human tau protein isoform", "assay": "RotaRod test in transgenic mice expressing the longest human tau protein isoform", "type": "in vivo, mouse", "settings": "subcutaneous implant releasing 0.38 mg of steroid per day for 90 days", "text": "FIG. 8: Effect of molecule 43B on the motor incoordination of transgenic mice expressing the longest isoform of human tau protein in their neurons. […] The maximum speed of rotation of the RotaRod drum before the […] falls is a measurement of motor coordination (higher values correspond to a better treatment effect).\nIn order to evaluate the therapeutic potential of 43B to treat Alzheimer-type neurodegenerative diseases, a homozygous transgenic line of mice, such as described by Götz (EMBO J. 1995; 14(7):1304-13), can be used.\nThese mice express the longest human tau protein isoform. They present symptoms of neurological dysfunction expressed as muscular weakness and a reduction in motor coordination which correlate histologically with the appearance of abnormal neurites and hyperphosphorylated tau proteins as is seen in Alzheimer's disease. This pathological phosphorylation decreases the affinity of tau for microtubules and favors its aggregation.\nA breeding program was undertaken at Bicêtre and genotyping made it possible to select mice homozygous for the transgene. […] These implants released 0.38 mg of steroid per day for 90 days. The progression of motor incoordination was followed by repeated RotaRod tests."}, "[5]": {"tested_on": "Sprague Dawley rats, recognition memory", "assay": "Novel object recognition test (NOR)", "type": "in vivo, rat", "protocol": "FIG. 14: 3-methoxy-PREG (43B) enhanced retention of recognition memory in naïve animals and recovered recognition memory deficits in social isolated rats. (A) Sesame Oil treated rats cannot discriminate between the novel and the familiar object following a 4 h inter trial interval (ITI) time. In contrast, 43B (10 mg/kg subcutaneously) treated rats retain the ability to discriminate between the novel and the familiar object. Mean±SEM, n=11-12 per group. ***p<0.001 vs sesame oil (T-test). (B) Isolated animals treated with sesame oil cannot discriminate between the novel and the familiar object following […], while grouped (control) rats clearly discriminate. […]\nCognitive dysfunction, including impaired recognition memory, are common features in depressed patients (Egeland et al., Scand. J. Psychol. 2005). […] Recognition memory was assessed using the NOR test which is a two-trial test of recognition memory based on the spontaneous preference of rats for novelty (Ennaceur and Delacour, Behav. Brain. Res. 1988; Bianchi et al., EJN 2006). […] The ability of the animals to discriminate between the novel and the familiar object is then expressed as: D2-INDEX: [novel object (sec)-familiar object (sec)]/[novel object (sec)+familiar object (sec)] […]"}},
  "data": [
    {"smiles": "CO[C@H]1CC[C@@]2(C)C(=CC[C@H]3[C@@H]4CC[C@H](C(C)=O)[C@@]4(C)CC[C@@H]32)C1", "note": "[3-methoxy-PREG, 3β-methoxy-pregna-5-ene-20-one]", "values": [
      {"measurement": "association of MAP2 to the microtubules", "setting": "[1]", "value": "stimulation"},
      {"measurement": "resistance of neurites to nocodazole", "setting": "[2]", "value": "makes the neurites resistant to nocodazole"},
      {"measurement": "BBB score (locomotion)", "setting": "[3]", "value": "quite significantly higher than the control animals"},
      {"measurement": "motor dysfunction (RotaRod)", "setting": "[4]", "value": "beneficial effect on motor dysfunction"},
      {"measurement": "discrimination of novel and familiar object, social isolated rats", "setting": "[5]; 10 mg/kg subcutaneously 1 h before task, ITI of 1 h", "value": "efficiently discriminated between the familiar and the novel object"},
      {"measurement": "discrimination of novel and familiar object, naïve animals", "setting": "[5]; 10 mg/kg subcutaneously immediately after T1, ITI of 4 h", "value": "discriminated between the novel and the familiar object"}
    ]}
  ]
}
